Columns and labels:
Format in all cases: in vivo
[1] = system: Paratrichodorus species; test: Nematicidal activity, sugar cane field, in furrow tank mix application; settings: fipronil 200, abamectin 90, mixture 200 + 90 g a.i./ha; for Nematode activity in the soil 90 days after planting: 1000 ml soil incl. roots, in furrow at planting, blank 133; for Efficacy/mortality: 90 days after planting, in furrow
Experimental: (§1) Fipronil was used in the commercially available formulation Regent® 800 WG, containing Fipronil in a concentration of 800 g/kg. Abamectin was used in the commercially available EC formulation Vertimec® 18 CE, containing Abamectin in a concentration of 18 g/I.
(§2) Tank mixes of the commercial formulations of fipronil and abamectin diluted with water were prepared in a ratio such that the application rates identified in the tables below were achieved when 100 liter of tank mix formulation were applied to sugar cane in furrow.
(§3) The tank mix formulation was applied in furrow spraying over the sugar cane stems (cuttings/segments, 1 to 3 nodes segments) at the planting time.
(§4) The synergistic effect was determined by Limpel's formula. Synergism was evident if the observed effect for the mixture is greater than the expected calculated effect:
(§5) E=Expected activity of the mixture X=activity of compound X Y=activity of compound Y
(§6) Treatments were done mid of June 2009 in Brazil in sugar cane fields which had not been pretreated with nematicides, that is, in fields showing an average nematode population.
(§7) Treatments were done only at the time of planting, that is, no further in furrow treatment was conducted. Each treatment experiment was replicated 6 times.
(§8) Nematicidal activity for Helicotylenchus and Paratrichodorus species was evaluated before the spraying for different portions of 1000 ml of soils collected at different sites of the field (“blank” in Table 1).
(§9) 90 days after spraying the tank mix formulation, different portions of 1000 ml of soil (including roots) were collected at different sites of the field, and the soil and the root knots were evaluated for nematicidal activity of Helicotylenchus and Paratrichodorus species and efficacy/mortality, respectively.
(§10) Synergism was evident if the % observed mortality for the mixture was greater than the % expected mortality.

[2] = system: Helicotylenchus species; test: as above; settings: fipronil 200, abamectin 90, mixture 200 + 90 g a.i./ha; for Nematode activity in the soil 90 days after planting: 1000 ml soil incl. roots, in furrow at planting, blank 317; for Efficacy/mortality: 90 days after planting, in furrow
Experimental: as §1, §2, §3, §4, §5, §6, §7, §8, §9, §10

[3] = system: sugar cane (variety SP80-1842); test: Yield increase of sugar cane; settings: fipronil 200, abamectin 126, mixture 200 + 126 g a.i./ha; for Yield: in furrow at planting, untreated 102.81; for % increase of yield: vs untreated
[4] = system: sugar cane; test: Plant health activity: tillering of sugar cane; settings: fipronil 200, abamectin 90, mixture 200 + 90 g a.i./ha; for No. of tillers 180 days after planting: average per 1.0 linear meter, in furrow at planting, blank 19.75; for % of increase: tillers 180 days after planting vs blank
Experimental: as §1, §2, §3, §4, §5
The tank mix formulation of the mixture of fipronil and abamectin was prepared as described above for testing of nematicidal activity. The tank mix formulation was applied to sugar cane as described above for testing of nematicidal activity.
Tillering was evaluated before the application of the tank mix (“blank” in Table 2) and 180 days after planting/application the tank mix formulation. Each replication (plot) was evaluated at 3 different randomized points, each point consisting of 1.0 linear meter of the central rows of the plot. Evaluation was done for 4 replications (plots).

| Compound | Nematode activity in the soil 90 days after planting [1] | Efficacy/mortality [1] [%] | Nematode activity in the soil 90 days after planting [2] | Efficacy/mortality [2] [%] | Yield [3] [tons/ha] | % increase of yield [3] [%] | No. of tillers 180 days after planting [4] | % of increase [4] [%] |
| --- | --- | --- | --- | --- | --- | --- | --- | --- |
| N#Cc1nn(-c2c(Cl)cc(C(F)(F)F)cc2Cl)c(N)c1[S+]([O-])C(F)(F)F (stereo not shown) [Fipronil] | 100 | 25 | 367 | 0 | 106.31 | 3.4 | 20.25 | 2.5 |
| Abamectin | 133 | 0 | 117 | 63 | 106.33 | 3.4 | 21.5 | 8.9 |
